{"source": "patent US20220347171A1", "about": "“TREATMENT OF PRURIGO NODULARIS” (TREVI THERAPEUTICS, INC., priority 2016, published 2022)", "key": {"[1]": {"test_system": "prurigo nodularis patients", "assay": "Example 2 trial: average itch intensity NRS score", "assay_type": "in vivo, human", "settings": "180 mg BID; end of treatment; 95% CI −2.764, −0.134; P=0.031", "description": "This clinical study was a double-blind, placebo-controlled trial in which prurigo nodularis patients were randomized in a 1:1:1 ratio to nalbuphine ER tablets to a target dose of 90 mg twice daily (BID), nalbuphine HCl ER tablets 180 mg BID, or placebo tablets BID. Use of nonsedating rescue antihistamine medications (non-first generation H1-antihistamines [Simons F E. Advances in H1-antihistamines. N Engl J Med. 2004; 351(21):2203-17.]) were allowed in the study but their use was recorded. Cleansing emollients were allowed for hygiene purposes provided there were no active substances (such as menthol or urea) contained in the lotion. A placebo comparator was chosen because there are no approved treatments for prurigo nodularis in the United States or Europe or an established standard of care that could serve as an active control.\n(1) The proportion of patients with at least a 30% reduction in the 7-day average daily diary-reported NRS itch intensity from baseline to the evaluation visit (Week 10). (2) The proportion of patients with at least a 50% reduction in the 7-day average daily diary-reported NRS itch intensity from baseline to the evaluation visit (Week 10). […] (5) Prurigo nodularis skin lesions, as quantitatively measured by the Prurigo Activity Score (PAS) recorded at baseline and during evaluation visit (Week 10). […]"}, "[2]": {"test_system": "prurigo nodularis patients", "assay": "TR03ext (Example 3), titrated 30 mg QD to 180 mg BID: itchy Verbal Rating Scale (VRS)", "assay_type": "in vivo, human", "settings": "for VRS Itch Visit Mean (SD): Baseline 2.7 (0.8)", "description": "This clinical study was a Phase 2 Open Label Extension Study (clinical study TR03ext) of the randomized, double-blind, 3-parallel arm, placebo controlled dose ranging study described in Example 2. All those subjects who were randomized, and then completed Example 2 study, were eligible to participate in the Extension Study.\nThe primary endpoint was a description of the overall incidence and nature of Treatment-Emergent AEs (TEAES) during weeks 5-50 of the study. Exploratory efficacy endpoints included Change from Baseline patient reported outcome measures of Worst itch NRS, itchy VRS and ItchyQoL, by Treatment Period study visit and Baseline NRS score. There was also an assessment of any potential skin lesion changes over time using the metrics of the PAS.\nOf the 63 patients that were randomized to the study of Example 2, 36 subjects who enrolled into Extension Study entered the Treatment Period of the study and were exposed to nalbuphine HCl ER tablet administration and are the basis of the study safety population analysis.\nPatients in Extension Study were titrated over a dose range of 30 mg QD to 180 mg BID based on tolerability. The selected dose range was based on Example 2 study whereby patients were titrated from a 30 mg QD dose either to 30 mg BID, 60 mg BID, 90 mg BID, 120 mg BID or a 180 mg BID dose. The highest dose proposed was 180 mg BID (360 mg daily dose), and was well below the highest recommended daily treatment of 160 mg IV (equivalent to 960 mg oral) for the current marketed parenteral administered product.\nThe study duration for each patient was up to 52 weeks, with up to 50 weeks on study drug. The Extension Study consisted of a Treatment Period (that was followed by a Washout Safety Follow-up Period) and an Observation Period. Patients either entered directly into a drug Treatment Period (NRS >5) or a no-drug Observation Period (NRS ≤5) based on their reported NRS scores on the first Visit (Visit 1a). For up to 12 Extended Screening weeks, patients in the no-drug Observation Period could have also transitioned into the drug Treatment Period if their NRS increased to NRS >5. All patients entering the Treatment Period, whether immediately upon study entry or following a period of time in the Observation Period, were titrated to a dose ranging between 30 mg up to 180 mg BID, the highest dose tested in Example 2."}, "[3]": {"settings": "Patients With At Least 6 Months of Treatment N = 18"}, "[4]": {"settings": "Patients With At Least 9 Months of Treatment N = 15"}}, "note": "Structures can show the parent of a compound that is named as a salt.", "data": [{"smiles": "Oc1ccc2c3c1OC1[C@@H](O)CC[C@@]4(O)[C@@H](C2)N(CC2CCC2)CC[C@]314", "note": "(stereo partly drawn) [Nalbuphine, 17-(cyclobutylmethyl)-4,5α-epoxymorphinian-3, 6α, 14-triol, hydrochloride]", "values": [{"measurement": "LS mean treatment difference in change from baseline average itch intensity NRS score versus placebo", "setting": "[1]", "result": "−1.45"}, {"measurement": "VRS Itch Improvement Category 1 Grade Better, baseline to last observed value, patients (%)", "setting": "[2]; All Patients N = 36", "result": "16 (44.4%)"}, {"measurement": "VRS Itch Improvement Category 1 Grade Worse, baseline to last observed value, patients (%)", "setting": "[2]; All Patients N = 36", "result": 0}, {"measurement": "VRS Itch Improvement Category 2-4 Grades Worse, baseline to last observed value, patients (%)", "setting": "[2]; All Patients N = 36", "result": 0}, {"measurement": "VRS Itch Improvement Category 2 Grades Better, baseline to last observed value, patients (%)", "setting": "[2]; All Patients N = 36", "result": "9 (25.0%)"}, {"measurement": "VRS Itch Improvement Category 3 Grades Better, baseline to last observed value, patients (%)", "setting": "[2]; All Patients N = 36", "result": "1 (2.8%)"}, {"measurement": "VRS Itch Improvement Category 4 Grades Better, baseline to last observed value, patients (%)", "setting": "[2]; All Patients N = 36", "result": 0}, {"measurement": "VRS Itch Improvement Category No Change, baseline to last observed value, patients (%)", "setting": "[2]; All Patients N = 36", "result": "3 (8.3%)"}, {"measurement": "VRS Itch Improvement Category 1 Grade Better, baseline to last observed value, patients (%)", "setting": "[2]; Completers N = 14", "result": "5 (35.7%)"}, {"measurement": "VRS Itch Improvement Category 1 Grade Worse, baseline to last observed value, patients (%)", "setting": "[2]; Completers N = 14", "result": 0}, {"measurement": "VRS Itch Improvement Category 2-4 Grades Worse, baseline to last observed value, patients (%)", "setting": "[2]; Completers N = 14", "result": 0}, {"measurement": "VRS Itch Improvement Category 2 Grades Better, baseline to last observed value, patients (%)", "setting": "[2]; Completers N = 14", "result": "7 (50.0%)"}, {"measurement": "VRS Itch Improvement Category 3 Grades Better, baseline to last observed value, patients (%)", "setting": "[2]; Completers N = 14", "result": 0}, {"measurement": "VRS Itch Improvement Category 4 Grades Better, baseline to last observed value, patients (%)", "setting": "[2]; Completers N = 14", "result": 0}, {"measurement": "VRS Itch Improvement Category No Change, baseline to last observed value, patients (%)", "setting": "[2]; Completers N = 14", "result": "2 (14.3%)"}, {"measurement": "VRS Itch Improvement Category 1 Grade Better, baseline to last observed value, patients (%)", "setting": "[2]; [3]", "result": "6 (33.3%)"}, {"measurement": "VRS Itch Improvement Category 1 Grade Worse, baseline to last observed value, patients (%)", "setting": "[2]; [3]", "result": 0}, {"measurement": "VRS Itch Improvement Category 2-4 Grades Worse, baseline to last observed value, patients (%)", "setting": "[2]; [3]", "result": 0}, {"measurement": "VRS Itch Improvement Category 2 Grades Better, baseline to last observed value, patients (%)", "setting": "[2]; [3]", "result": "9 (50.0%)"}, {"measurement": "VRS Itch Improvement Category 3 Grades Better, baseline to last observed value, patients (%)", "setting": "[2]; [3]", "result": "1 (5.6%)"}, {"measurement": "VRS Itch Improvement Category 4 Grades Better, baseline to last observed value, patients (%)", "setting": "[2]; [3]", "result": 0}, {"measurement": "VRS Itch Improvement Category No Change, baseline to last observed value, patients (%)", "setting": "[2]; [3]", "result": "2 (11.1%)"}, {"measurement": "VRS Itch Improvement Category 1 Grade Better, baseline to last observed value, patients (%)", "setting": "[2]; [4]", "result": "6 (40.0%)"}, {"measurement": "VRS Itch Improvement Category 1 Grade Worse, baseline to last observed value, patients (%)", "setting": "[2]; [4]", "result": 0}, {"measurement": "VRS Itch Improvement Category 2-4 Grades Worse, baseline to last observed value, patients (%)", "setting": "[2]; [4]", "result": 0}, {"measurement": "VRS Itch Improvement Category 2 Grades Better, baseline to last observed value, patients (%)", "setting": "[2]; [4]", "result": "7 (46.7%)"}, {"measurement": "VRS Itch Improvement Category 3 Grades Better, baseline to last observed value, patients (%)", "setting": "[2]; [4]", "result": 0}, {"measurement": "VRS Itch Improvement Category 4 Grades Better, baseline to last observed value, patients (%)", "setting": "[2]; [4]", "result": 0}, {"measurement": "VRS Itch Improvement Category No Change, baseline to last observed value, patients (%)", "setting": "[2]; [4]", "result": "2 (13.3%)"}, {"measurement": "VRS Itch Mean (SD) Change from Baseline", "setting": "[2]; Study Week 3, N=34", "result": "−0.6 (0.9)"}, {"measurement": "VRS Itch Visit Mean (SD)", "setting": "[2]; Study Week 3, N=34", "result": "2.1 (1.1)"}, {"measurement": "VRS Itch Mean (SD) Change from Baseline", "setting": "[2]; Study Week 5, N=33", "result": "−0.9 (1.0)"}, {"measurement": "VRS Itch Visit Mean (SD)", "setting": "[2]; Study Week 5, N=33", "result": "1.8 (1.0)"}, {"measurement": "VRS Itch Mean (SD) Change from Baseline", "setting": "[2]; Study Week 9, N=30", "result": "−0.9 (0.8)"}, {"measurement": "VRS Itch Visit Mean (SD)", "setting": "[2]; Study Week 9, N=30", "result": "1.7 (0.9)"}, {"measurement": "VRS Itch Mean (SD) Change from Baseline", "setting": "[2]; Study Week 13, N=25", "result": "−1.1 (0.8)"}, {"measurement": "VRS Itch Visit Mean (SD)", "setting": "[2]; Study Week 13, N=25", "result": "1.5 (0.8)"}, {"measurement": "VRS Itch Mean (SD) Change from Baseline", "setting": "[2]; Study Week 17, N=25", "result": "−1.2 (1.2)"}, {"measurement": "VRS Itch Visit Mean (SD)", "setting": "[2]; Study Week 17, N=25", "result": "1.4 (1.0)"}, {"measurement": "VRS Itch Mean (SD) Change from Baseline", "setting": "[2]; Study Week 21, N=22", "result": "−1.2 (0.8)"}, {"measurement": "VRS Itch Visit Mean (SD)", "setting": "[2]; Study Week 21, N=22", "result": "1.4 (0.7)"}, {"measurement": "VRS Itch Mean (SD) Change from Baseline", "setting": "[2]; Study Week 26, N=21", "result": "−1.2 (0.9)"}, {"measurement": "VRS Itch Visit Mean (SD)", "setting": "[2]; Study Week 26, N=21", "result": "1.4 (0.9)"}, {"measurement": "VRS Itch Mean (SD) Change from Baseline", "setting": "[2]; Study Week 30, N=20", "result": "−1.5 (0.8)"}, {"measurement": "VRS Itch Visit Mean (SD)", "setting": "[2]; Study Week 30, N=20", "result": "1.1 (0.8)"}, {"measurement": "VRS Itch Mean (SD) Change from Baseline", "setting": "[2]; Study Week 34, N=18", "result": "−1.2 (0.8)"}, {"measurement": "VRS Itch Visit Mean (SD)", "setting": "[2]; Study Week 34, N=18", "result": "1.4 (0.6)"}, {"measurement": "VRS Itch Mean (SD) Change from Baseline", "setting": "[2]; Study Week 38, N=17", "result": "−1.2 (0.7)"}, {"measurement": "VRS Itch Visit Mean (SD)", "setting": "[2]; Study Week 38, N=17", "result": "1.4 (0.6)"}, {"measurement": "VRS Itch Mean (SD) Change from Baseline", "setting": "[2]; Study Week 42, N=17", "result": "−1.4 (0.6)"}, {"measurement": "VRS Itch Visit Mean (SD)", "setting": "[2]; Study Week 42, N=17", "result": "1.2 (0.6)"}, {"measurement": "VRS Itch Mean (SD) Change from Baseline", "setting": "[2]; Study Week 46, N=17", "result": "−1.4 (0.6)"}, {"measurement": "VRS Itch Visit Mean (SD)", "setting": "[2]; Study Week 46, N=17", "result": "1.2 (0.7)"}, {"measurement": "VRS Itch Mean (SD) Change from Baseline", "setting": "[2]; Study Week 50, N=15", "result": "−1.5 (0.7)"}, {"measurement": "VRS Itch Visit Mean (SD)", "setting": "[2]; Study Week 50, N=15", "result": "1.1 (0.6)"}]}]}
